# How the values were obtained:
# gel-filtered platelets [1] = assay: Inhibition of thrombin-induced gel-filtered platelet aggregation; format: cell-based; details: aggregation initiated by human α-thrombin 0.113 nM-0.187 nM, OD 650 at 0 and 5 min
# Experimental: (§1) In Vitro Inhibition Of Thrombin- and SFLLRN-NH2-Induced Gel-Filtered Platelet Aggregation Assay
# (§2) Platelet Rich Plasma concentrate (Biological Specialties, Inc) is gel filtered (Sepharose 2B, Pharmacia) in Tyrode's buffer (140 mM NaCl, 2.7 mM KCl, 12 mM NaHCO3, 0.76 mM Na2HPO4, 5.5 mM dextrose, 5.0 mM Hepes, and 2 mg/ml BSA @ pH 7.4). The gel-filtered platelets are diluted with Tyrode's buffer (143,000 platelets/μl, final platelet count per well), compound solution in buffer, and 2 mM CaCl2 in a 96 well plate. Platelet aggregation is initiated by the addition of human α-thrombin (American Diagnostica, 0.113 nM-0.187 nM) or SFLLRN-NH2 (2 μM) shown to achieve 80% aggregation (0.015-0.025 NIH U/ml, 0.113 nM-0.187 nM). The assay plate is stirred constantly. Platelet aggregation is monitored by intermittently placing the plate in a microplate reader (Molecular Devices) to read optical density ([…], ΔSOFT) at 0 and 5 minutes after the thrombin addition. Aggregation was calculated to be the decrease in optical density between the time 0 and 5 minute measurements. All samples were tested in duplicate wells on the same plate.
# (§3) Table 3 contains IC50 values (μM) of the compounds against platelet aggregation stimulated by thrombin and IC50 values (μM) in a thrombin receptor (PAR-1) binding assay.
# gel-filtered platelets [2] = assay: Inhibition of SFLLRN-NH2-induced gel-filtered platelet aggregation; format: cell-based; details: aggregation initiated by SFLLRN-NH2 (2 μM), OD 650 at 0 and 5 min
# Experimental: as §1, §2
# [3] = molecular target: T1, thrombin receptor (PAR-1) (Homo sapiens, UniProt P25116); assay: In vitro thrombin receptor binding assay (CHRF membranes); details: tritiated 721-40 (Ser-pFPhe-Har-Leu-Har-Lys-Tyr-NH2), 30 min incubation
# T1 construct: CHRF membranes (Jones, Biochim. Biophys. Acta 1992, 1136, 272) are thawed from −70° C; endogenous in cells; host or cells: CHRF cell membranes (CHRF-288 megakaryoblastic line, per the cited Jones 1992)
# T1 sequence (P25116 22-425): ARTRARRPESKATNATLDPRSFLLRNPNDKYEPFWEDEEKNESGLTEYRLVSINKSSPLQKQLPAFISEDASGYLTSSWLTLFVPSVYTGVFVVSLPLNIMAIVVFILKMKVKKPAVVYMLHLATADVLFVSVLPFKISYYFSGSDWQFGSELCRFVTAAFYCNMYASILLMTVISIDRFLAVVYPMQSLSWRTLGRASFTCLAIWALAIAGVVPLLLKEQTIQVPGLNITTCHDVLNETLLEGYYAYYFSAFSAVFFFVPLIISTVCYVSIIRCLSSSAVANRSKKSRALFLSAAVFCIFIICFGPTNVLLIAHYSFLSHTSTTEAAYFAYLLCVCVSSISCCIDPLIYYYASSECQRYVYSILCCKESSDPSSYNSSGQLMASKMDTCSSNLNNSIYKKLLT
# Experimental: In Vitro Thrombin Receptor Binding Assay
# CHRF membranes (Jones, Biochim. Biophys. Acta 1992, 1136, 272) are thawed from −70° C., centrifuged at maximum speed for 5 min, washed twice with binding buffer (50 mM HEPES containing 5 mM MgCl2 and 0.1% BSA), and re-suspended in binding buffer ([…]). 100 μL of membranes are added to the 24-Wallac plates and delivered to the Tomtech apparatus. In a typical experiment, 6 μL of samples (from a 125 μg/mL intermediary plate, 20% DMSO) and 44 μL buffer are delivered to the plates (final conc. of compounds is 3.7 μg/mL, 0.6% DMSO). Similarly, 6 μL 20% DMSO and 44 μL buffer are delivered to both column 1 (NSB) and column 12 (TB). 10 μL Ser-pFPhe-Har-Leu-Har-Lys-Tyr-NH2 (721-40; 500 μM in deionized water) is added to column 1. 50 μL tritiated 721-40 (specific activity 46 Ci/mmol) is added to all the wells. The plates are mixed well for 20 seconds, incubated for 30 min, and then harvested with 10 mM HEPES/138 mM NaCl using the Skatron harvester. The filters (GF/C Brandel FPXLR 296) are presoaked 3 h in 0.5% polyethylenimine in HEPES/0.1M N-acetylglucosamine) are set in saran wrap and dried for 3 min in the microwave, and placed in sample bags (Wallac 1450-432). 4.5 mL scintillation fluid (Wallac, Betaplate Scint 1205-440) is added. The bags are sealed, placed in filter cassettes (Wallac 1450-104), and analyzed on the microbeta counter.
# as §3
SMILES,IC50 (gel-filtered platelets [1]; Platelet) [µM],IC50 (gel-filtered platelets [2]; Platelet) [µM],IC50 (gel-filtered platelets [1]) [µM],IC50 [3] [µM],IC50 (gel-filtered platelets [2]) [µM]
CCCNCc1cn(Cc2ccc(F)cc2)c2ccc(NC(=O)[C@@H](Cc3ccccc3)NC(=O)[C@@H](CCCNC(=N)N)NC(=O)OC3c4ccccc4-c4ccccc43)cc12 [Compound 1],51.6,43.7,,,
"N=C(N)NCCCC(NC(=O)Cc1ccccc1)C(=O)NC(Cc1ccccc1)C(=O)Nc1ccc2c(c1)c(CN1CCCC1)cn2Cc1ccc(F)cc1 (centres unmarked) [Compound 17, 5-Guanidino-2-phenylacetylamino-pentanoic acid {1-[1-(4-fluoro-benzyl)-3-pyrrolidin-1-ylmethyl-1H-indol-5-ylcarbamoyl]-2-phenyl-ethyl}-amide]",,,44.5,10.4,9.8
N=C(N)NCCC[C@H](NC(=O)OCc1ccccc1)C(=O)N[C@@H](Cc1ccccc1)C(=O)Nc1ccc2c(CN3CCCC3)cn(Cc3ccc(F)cc3)c2c1 [Compound 19],18.7,11.1,,2.4,
CC(=O)N[C@@H](CCCNC(=N)N)C(=O)N[C@@H](CC1CCCCC1)C(=O)Nc1ccc2c(CN3CCCC3)cn(Cc3ccc(F)cc3)c2c1 [Compound 21],4.7,3.2,,10.7,

# — patent publication US7618945B2, “Heteroaryl peptidomimetics as thrombin receptor antagonists” (Janssen Pharmaceutica, N.V., priority 2002, dated 2009)
